According to ChEMBL document CHEMBL3217496, “Inhibitors of Stat5 protein signalling” (Medchemcomm, 2012):
pIC50: −log10 of the molar value. Each block holds one molecule with its values, some of them ahead of it.

What was measured:
BaF3 = assay: Cytotoxicity against mouse BAF3 cells expressing JAK2 V617F mutant after 48 hrs by CellTiterGlo assay; assay type: functional, cell-based; details: BaF3, 48 h
[1] = target: Signal transducer and activator of transcription 3 (Homo sapiens, UniProt P40763); assay: Inhibition of STAT3 (unknown origin)
Signal transducer and activator of transcription 3, sequence (P40763 whole entry): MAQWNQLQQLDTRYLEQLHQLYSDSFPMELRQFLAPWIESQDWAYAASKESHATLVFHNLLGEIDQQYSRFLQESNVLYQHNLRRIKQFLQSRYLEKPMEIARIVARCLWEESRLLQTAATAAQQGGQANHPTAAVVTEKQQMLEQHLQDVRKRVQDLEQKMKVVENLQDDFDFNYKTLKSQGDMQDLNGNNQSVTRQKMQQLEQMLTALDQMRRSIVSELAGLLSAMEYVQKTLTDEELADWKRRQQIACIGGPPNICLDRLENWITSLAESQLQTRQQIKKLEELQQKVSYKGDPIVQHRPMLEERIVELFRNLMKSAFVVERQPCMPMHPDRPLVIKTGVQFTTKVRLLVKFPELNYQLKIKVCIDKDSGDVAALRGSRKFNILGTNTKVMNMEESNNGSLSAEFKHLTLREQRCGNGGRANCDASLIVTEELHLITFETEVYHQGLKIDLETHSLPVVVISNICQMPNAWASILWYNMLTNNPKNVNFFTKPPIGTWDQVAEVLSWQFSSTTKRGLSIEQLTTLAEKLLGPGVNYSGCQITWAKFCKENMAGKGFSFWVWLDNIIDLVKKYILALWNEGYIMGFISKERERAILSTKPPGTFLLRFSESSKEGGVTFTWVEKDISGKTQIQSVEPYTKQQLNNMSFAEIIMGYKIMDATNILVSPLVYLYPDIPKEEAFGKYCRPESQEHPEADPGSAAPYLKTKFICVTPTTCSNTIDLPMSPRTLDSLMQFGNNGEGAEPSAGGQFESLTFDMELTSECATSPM

[2] = target: T1, Signal transducer and activator of transcription 5A (Homo sapiens, UniProt P42229); assay: Inhibition of STAT5 (unknown origin)
T1 sequence (P42229 whole entry): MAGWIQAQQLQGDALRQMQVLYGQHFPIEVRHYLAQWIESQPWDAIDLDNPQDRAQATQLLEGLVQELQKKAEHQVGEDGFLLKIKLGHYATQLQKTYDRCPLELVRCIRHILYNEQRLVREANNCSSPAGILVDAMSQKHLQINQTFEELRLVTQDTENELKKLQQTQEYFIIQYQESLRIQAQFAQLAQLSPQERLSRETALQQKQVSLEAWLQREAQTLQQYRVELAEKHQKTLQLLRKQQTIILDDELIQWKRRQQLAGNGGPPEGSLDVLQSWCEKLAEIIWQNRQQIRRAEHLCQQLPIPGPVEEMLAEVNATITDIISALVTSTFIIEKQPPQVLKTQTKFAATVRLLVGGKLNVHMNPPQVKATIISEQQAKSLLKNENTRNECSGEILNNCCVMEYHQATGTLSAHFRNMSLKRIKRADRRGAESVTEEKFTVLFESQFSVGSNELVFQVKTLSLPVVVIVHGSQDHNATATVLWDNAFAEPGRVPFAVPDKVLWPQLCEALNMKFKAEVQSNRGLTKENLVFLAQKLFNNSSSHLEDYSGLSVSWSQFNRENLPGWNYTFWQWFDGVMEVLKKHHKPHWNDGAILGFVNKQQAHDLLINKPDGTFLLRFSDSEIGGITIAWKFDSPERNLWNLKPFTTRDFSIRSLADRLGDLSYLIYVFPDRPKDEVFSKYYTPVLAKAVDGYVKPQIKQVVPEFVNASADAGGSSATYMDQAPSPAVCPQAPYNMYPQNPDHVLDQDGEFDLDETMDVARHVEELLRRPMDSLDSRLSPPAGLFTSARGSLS

[3] = target: T2, Signal transducer and activator of transcription 1-alpha/beta (Homo sapiens, UniProt P42224); assay: Inhibition of STAT1 (unknown origin)
T2 sequence (P42224 whole entry): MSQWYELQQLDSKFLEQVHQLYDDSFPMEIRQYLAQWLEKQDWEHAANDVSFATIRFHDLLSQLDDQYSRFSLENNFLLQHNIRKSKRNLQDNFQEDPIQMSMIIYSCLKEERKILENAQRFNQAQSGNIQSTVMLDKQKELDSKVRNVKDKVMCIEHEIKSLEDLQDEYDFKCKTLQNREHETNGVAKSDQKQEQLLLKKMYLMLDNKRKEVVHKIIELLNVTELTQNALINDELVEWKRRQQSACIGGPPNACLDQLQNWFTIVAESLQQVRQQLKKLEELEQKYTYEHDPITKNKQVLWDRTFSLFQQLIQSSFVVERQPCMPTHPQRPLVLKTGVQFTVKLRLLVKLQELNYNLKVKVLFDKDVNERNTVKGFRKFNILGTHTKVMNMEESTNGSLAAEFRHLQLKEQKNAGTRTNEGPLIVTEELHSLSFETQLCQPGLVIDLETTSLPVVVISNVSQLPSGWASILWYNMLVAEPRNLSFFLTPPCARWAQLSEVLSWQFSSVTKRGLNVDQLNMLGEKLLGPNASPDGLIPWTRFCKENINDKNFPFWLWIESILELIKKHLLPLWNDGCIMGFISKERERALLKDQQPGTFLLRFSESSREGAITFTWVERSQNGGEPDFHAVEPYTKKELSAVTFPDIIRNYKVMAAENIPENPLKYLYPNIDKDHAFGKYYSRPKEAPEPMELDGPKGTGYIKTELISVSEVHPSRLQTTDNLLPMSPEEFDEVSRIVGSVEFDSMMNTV

[4] = target: T1, Signal transducer and activator of transcription 5A; assay: Inhibition of STAT5 DNA binding activity in human K562 cells after 24 hrs by electrophoretic mobility shift assay; assay type: cell-based
[5] = target: Tyrosine-protein kinase JAK2 (Mus musculus, UniProt Q62120, V617F); assay: Inhibition of JAK2 V617F mutant in mouse BAF3 cells; assay type: cell-based
Tyrosine-protein kinase JAK2, sequence (Q62120 as listed by the source V617F): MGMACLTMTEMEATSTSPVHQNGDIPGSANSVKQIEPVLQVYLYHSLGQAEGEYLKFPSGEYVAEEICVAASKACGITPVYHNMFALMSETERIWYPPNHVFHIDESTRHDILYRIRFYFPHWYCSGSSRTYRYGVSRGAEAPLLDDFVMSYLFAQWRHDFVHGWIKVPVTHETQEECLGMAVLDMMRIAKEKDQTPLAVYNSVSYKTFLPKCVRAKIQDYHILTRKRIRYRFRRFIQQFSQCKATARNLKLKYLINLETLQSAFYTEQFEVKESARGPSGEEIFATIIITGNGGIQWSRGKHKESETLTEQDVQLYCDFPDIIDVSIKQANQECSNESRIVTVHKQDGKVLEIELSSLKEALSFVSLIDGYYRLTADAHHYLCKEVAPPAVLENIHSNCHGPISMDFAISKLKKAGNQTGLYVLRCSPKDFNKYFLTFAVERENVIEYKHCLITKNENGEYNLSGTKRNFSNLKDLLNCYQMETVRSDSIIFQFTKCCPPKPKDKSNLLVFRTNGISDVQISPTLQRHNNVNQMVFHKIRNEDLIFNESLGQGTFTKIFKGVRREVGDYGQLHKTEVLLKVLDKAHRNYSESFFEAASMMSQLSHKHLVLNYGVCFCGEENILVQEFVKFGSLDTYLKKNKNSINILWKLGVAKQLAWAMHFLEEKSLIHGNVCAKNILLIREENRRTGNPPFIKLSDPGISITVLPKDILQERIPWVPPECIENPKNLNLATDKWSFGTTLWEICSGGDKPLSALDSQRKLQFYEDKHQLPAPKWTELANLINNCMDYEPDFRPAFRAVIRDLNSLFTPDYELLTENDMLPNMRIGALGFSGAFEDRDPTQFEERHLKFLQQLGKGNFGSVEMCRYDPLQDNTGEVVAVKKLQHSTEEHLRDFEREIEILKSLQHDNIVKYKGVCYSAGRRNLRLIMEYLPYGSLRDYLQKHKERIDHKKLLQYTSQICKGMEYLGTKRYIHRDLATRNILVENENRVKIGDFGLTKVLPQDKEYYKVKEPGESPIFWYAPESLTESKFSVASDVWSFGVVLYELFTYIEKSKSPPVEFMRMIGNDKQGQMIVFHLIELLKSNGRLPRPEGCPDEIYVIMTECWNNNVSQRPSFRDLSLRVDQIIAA

cells = details: Homo sapiens, EOL1
Description: Antiproliferative activity against human EOL-1 cells by CellTiterGlo assay

SMILES: N#CC[C@H](C1CCCC1)n1cc(-c2ncnc3[nH]ccc23)cn1 [RUXOLITINIB]
pIC50 (BaF3): 6.90

SMILES: Cc1cc(Nc2ncc3cc(-c4c(Cl)cccc4Cl)c(=O)n(C)c3n2)ccc1F
pIC50 [4]: 8.30

SMILES: CNC(=O)c1cc(Oc2ccc(NC(=O)Nc3ccc(Cl)c(C(F)(F)F)c3)cc2)ccn1 [SORAFENIB]
pIC50 (cells): 8.64

More lines, now with the values ahead:

pIC50 [1]: 3.74 | pIC50 [2]: 4.33 | pIC50 [3]: 3.89
SMILES: O=C(N/N=C/c1coc2ccccc2c1=O)c1cccnc1

pIC50 [5]: 5.82
SMILES: N#CCNC(=O)c1ccc(-c2ccnc(Nc3ccc(N4CCOCC4)cc3)n2)cc1 [MOMELOTINIB]
